The record followed here is patent publication US12410148B2, “Antibody drug conjugates” (Pharma Mar, S.A., priority 2013, dated 2025).

Values joined by “and” are separate entries in the source; they are usually repeats but may differ in a detail not shown here. Equal entries are not always repeated. Where two headings read alike, the source gives them in different places. A value given as a limit tells only on which side of the number the result lay.

The subject of one data set is HCC-1954 cells. Kind of data set: In vitro cytotoxicity, SRB assay, 72 h dose-response. In kind it is cell-based. The settings on record: Homo sapiens, HCC1954, 72 h, HER2+; 72 h; read-out: IC50. An excerpt:
(§1) Nature Protocols, 1, 1112-1 116.

The next data set has as its system MCF-7 cells. The data set is described as above. In kind it is cell-based. The settings on record: Homo sapiens, MCF7, 72 h, HER2−; 72 h; read-out: IC50.
Source text: as §1

Another data set has as its system MDA-MB-231 cells. Described as above. The settings on record: Homo sapiens, MDA-MB-231, 72 h, HER2−; 72 h; read-out: IC50. Format: cell-based.
Source text: as §1

The next data set has as its system SK-BR-3 cells. Described as above. In kind it is cell-based. The settings on record: Homo sapiens, SK-BR-3, 72 h, HER2+; 72 h; read-out: IC50.
The subject of data set [1] is HCC-1954, SK-BR-3, MDA-MB-231 and MCF-7 cells. Kind of data set: In vitro cytotoxicity, whole breast cancer cell panel. An excerpt: (§2) All tumor cell lines used in this study were obtained from the American Type Culture Collection (ATCC), unless otherwise indicated; BT-474 (ATCC HTB-20, Breast Ductal Carcinoma), SK-BR-3 (ATCC HTB-30, Breast Adenocarcinoma) and HCC-1954 (ATCC CRL-2338, Breast Ductal Carcinoma), all HER2+; MDA-MB-231 (ATCC HTB-26, Breast Adenocarcinoma) and MCF-7 (ATCC HTB-22 Breast Adenocarcinoma, pleural effusion), all HER2-; SK-OV-3 (ATCC HTB-77, Ovary Adenocarcinoma), HER2+; NB-4 (Acute Promyelocytic Leukemia, APL, CD13+, M. Lanotte et al. (1991) NB4, a maturation inducible cell line with t(15;17) marker isolated from a human acute promyelocytic leukemia (M3). Blood 77, 1080-1086), (CD13+) and U937 (ATCC CRL-1 593.2, Histiocytic Lymphoma, CD13+ and CD4+); Raji (ATCC CCL-86, Burkitt's Lymphoma) (CD13−, CD20+, CD5−, and CD4−); RPMI-8226 (ATCC CRM-CCL-155, Multiple Myeloma) (CD13−, CD20−, CD5− and CD4−); Karpas-299 (DSMZ ACC-31, Non-Hodgkin's Lymphoma) (CD20−, CD5+, and CD4+); MOLT-4 (ATCC CRL-1 582, Acute Lymphoblastic Leukemia, CD5+). In addition, the two Raji cell (ATCC CCL-86, Burkitt's Lymphoma) clones used in this study Raji-clone #10 (high CD5 expression) and Raji-clone18 (null CD5 expression), were provided by Dr. Juan M. Zapata (Instituto de Investigaciones Biomedicas “Alberto Sols”, CSIC-UAM, Madrid, Spain). Cells were maintained at 37° C., 5% CO 2 and 95% humidity in Dulbecco's Modified Eagle's Medium (DMEM) (for MCF and MDA-MB-231 cells), RPMI-1640 (for SK-BR-3, HCC-1954, NB-4, U937, Raji, RPMI-8226, Karpas-299, MOLT-4, Raji-clone #10 and Raji-clone #18 cells), RPMI-1640+1% ITS (for BT-474 cells) or McCOyS (for SK-OV-3 cells), all media supplemented with 10% Fetal Calf Serum (FCS) and 100 units/mL penicillin and streptomycin.
For adherent cells: A colorimetric assay using sulforhodamine B (SRB) was adapted for quantitative measurement of cell growth and cytotoxicity, as described in V. Vichai and K. Kirtikara (2006) Sulforhodamine B colorimetric assay for cytotoxicity screening. Nature Protocols, 1, 1112-1 116. Briefly, cells were seeded in 96-well microtiter plates and allowed to stand for 24 hours in drug-free medium before treatment with vehicle alone or the indicated compounds for 72 hours. For quantification, cells were washed twice with phosphate buffered saline (PBS), fixed for 15 min in 1% glutaraldehyde solution, rinsed twice with PBS, stained in 0.4% SRB-1% acetic acid solution for 30 min, rinsed several times with 1% acetic acid solution and air-dried. SRB was then extracted in 10 mM trizma base solution and the optical density measured at 490 nm in a microplate spectrophotometer. Cell survival was expressed as percentage of control, untreated cell survival.
(§3) The IC50 value refers to the concentration of compound inducing a 50% of cell death as compared to the control cell survival.
Standard dose-response (DR) curves for 72 hours were performed.

Data set [2] deals with Raji, RPMI-8226 and Karpas-299 cells. Kind of data set: In vitro cytotoxicity, whole CD20 cell panel.
Source text: as §2
For suspension cells: A standard metabolic assay using MTT (3-(4,5-Dimethylthiazol-2-yl)-2,5-diphenyltetrazolium bromide) was adapted for quantitative measurement of cell growth and cytotoxicity, as described in T. Mosmann (1983) Rapid colorimetric assay for cellular growth and survival: Application to proliferation and cytotoxicity assays. J. Immunol. Meth., 65, 55-63. Briefly, MTT solution was added to the cell cultures at a final concentration of 0.5 mg/mL, and incubated for 1 to 4 hours at 37° C. until formazan crystals are formed. Culture medium is carefully removed from the cell cultures and formazan crystals resuspended in 100 μl DMSO. After mixing to assure solubilization, the quantity of formazan (presumably directly proportional to the number of viable cells) is measured by recording changes in absorbance at 570 nm using a plate reading spectrophotometer. Cell survival was expressed as percentage of control, untreated cell survival.
as §3
The in vitro cytotoxic activity of ADC12 along with the parent cytotoxic Compounds 1, 4, and 40, was evaluated was assayed against different human cancer cell lines expressing or not the CD20 antigen, including Raji (CD20 positive cells); RPMI-8226 and Karpas-299 (CD20 negative cells). Standard dose-response (DR) curves for 72 hours were performed.

The mark [3] stands for this setting: Homo sapiens, read-out: IC50 values along the different cell lines tested (range), four breast cell lines.
Where [4] appears, read: Homo sapiens, read-out: mean IC50 value across the whole cell panel, four breast cell lines.
[5] abbreviates: read-out: mean IC50 value across the whole cell panel, four breast cell lines.

Source text for SK-BR-3 cells: All tumor cell lines used in this study were obtained from the American Type Culture Collection (ATCC), unless otherwise indicated; BT-474 (ATCC HTB-20, Breast Ductal Carcinoma), SK-BR-3 (ATCC HTB-30, Breast Adenocarcinoma) and HCC-1954 (ATCC CRL-2338, Breast Ductal Carcinoma), all HER2+; MDA-MB-231 (ATCC HTB-26, Breast Adenocarcinoma) and MCF-7 (ATCC HTB-22 Breast Adenocarcinoma, pleural effusion), all HER2-; SK-OV-3 (ATCC HTB-77, Ovary Adenocarcinoma), HER2+; NB-4 (Acute Promyelocytic Leukemia, APL, CD13+, M. Lanotte et al. (1991) NB4, a maturation inducible cell line with t(15;17) marker isolated from a human acute promyelocytic leukemia (M3). […] Cells were maintained at 37° C., 5% CO 2 and 95% humidity in Dulbecco's Modified Eagle's Medium (DMEM) (for MCF and MDA-MB-231 cells), RPMI-1640 (for SK-BR-3, HCC-1954, NB-4, U937, Raji, RPMI-8226, Karpas-299, MOLT-4, Raji-clone #10 and Raji-clone #18 cells), RPMI-1640+1% ITS (for BT-474 cells) or McCOyS (for SK-OV-3 cells), all media supplemented with 10% Fetal Calf Serum (FCS) and 100 units/mL penicillin and streptomycin.
For adherent cells: A colorimetric assay using sulforhodamine B (SRB) was adapted for quantitative measurement of cell growth and cytotoxicity, as described in V. Vichai and K. Kirtikara (2006) Sulforhodamine B colorimetric assay for cytotoxicity screening. […] Briefly, cells were seeded in 96-well microtiter plates and allowed to stand for 24 hours in drug-free medium before treatment with vehicle alone or the indicated compounds for 72 hours. For quantification, cells were washed twice with phosphate buffered saline (PBS), fixed for 15 min in 1% glutaraldehyde solution, rinsed twice with PBS, stained in 0.4% SRB-1% acetic acid solution for 30 min, rinsed several times with 1% acetic acid solution and air-dried. SRB was then extracted in 10 mM trizma base solution and the optical density measured at 490 nm in a microplate spectrophotometer. Cell survival was expressed as percentage of control, untreated cell survival.

On to `C/C=C\C[C@@H](C/C=C\NC(=O)[C@@H](NC(=O)\C=C/C=C\C(C)=C\[C@H](C)[C@@H]1CC=C(OC)C(=O)O1)C(C)(C)C)OC(=O)NCCCNC(=O)CCCCCN1C(=O)C=CC1=O` [Compound 5], for which the IC50 was 0.0195 µg/mL and 23.8 nM with HCC-1954 cells; 0.0775 µg/mL and 94.1 nM in the data set on MCF-7 cells; 0.057 µg/mL and 69.4 nM in the data set with MDA-MB-231 cells; 0.019 µg/mL and 23.2 nM with SK-BR-3 cells; 0.019 µg/mL to 0.077 µg/mL and 23.2 nM to 94.1 nM in data set [1] (setting [3]); 0.0433 µg/mL and 52.6 nM in data set [1] (setting [4]).
`C/C=C\C[C@@H](C/C=C\NC(=O)[C@@H](NC(=O)\C=C/C=C\C(C)=C\[C@H](C)[C@@H]1CC=C(OC)C(=O)O1)C(C)(C)C)OC(=O)NCCCN` [Compound 8]: the IC50 in the data set with HCC-1954 cells is 0.0054 µg/mL and 8.59 nM; in the data set with MCF-7 cells it was 0.00675 µg/mL and 10.7 nM; in the data set on MDA-MB-231 cells, 0.00655 µg/mL and 10.4 nM; with SK-BR-3 cells it was 0.0034 µg/mL and 5.41 nM; in data set [1] (setting [3]), 0.0034 µg/mL to 0.00675 µg/mL and 2.94 nM to 15.1 nM; in data set [1] (setting [4]), 0.00553 µg/mL and 8.79 nM. Further, the IC50 in data set [1] (setting [5]) came to 8.67 nM. The “mean IC50 value across the whole cell panel” value in data set [1] (four breast cell lines) came out at 5.45 ng/mL.
As to `COC1=CC[C@@H]([C@@H](C)/C=C(C)/C=C\C=C/C(=O)N[C@H](C(=O)N/C=C\C[C@H](C/C=C(\C)Cl)OC(=O)NCCCS)C(C)(C)C)OC1=O` [Compound 15], the IC50 in the data set on HCC-1954 cells was 0.000675 µg/mL and 0.994 nM; in the data set on MCF-7 cells, 0.00145 µg/mL and 2.14 nM; in the data set on MDA-MB-231 cells, 0.00149 µg/mL and 2.19 nM; with SK-BR-3 cells it was 0.00048 µg/mL and 0.706 nM; in data set [1] (setting [3]) it was 0.00048 µg/mL to 0.00149 µg/mL and 0.706 nM to 2.19 nM; in data set [1] (setting [4]) it was 0.00103 µg/mL and 1.51 nM. Also, the “decrease of cytotoxic activity as compared to Compound 40” value in data set [1] (thiol containing tail) was “about 8 fold”.
As to `C/C=C\C[C@@H](C/C=C\NC(=O)[C@@H](NC(=O)\C=C/C=C\C(C)=C\[C@H](C)[C@@H]1CC=C(OC)C(=O)O1)C(C)(C)C)OC(=O)NCCCNC(=O)CCS` [Compound 18], the IC50 in the data set with HCC-1954 cells is 0.00805 µg/mL and 11.2 nM; in the data set with MCF-7 cells, 0.0185 µg/mL and 25.8 nM; with MDA-MB-231 cells, 0.0115 µg/mL and 16 nM; with SK-BR-3 cells, 0.0044 µg/mL and 6.14 nM; in data set [1] (setting [3]), 0.0044 µg/mL to 0.0185 µg/mL and 6.14 nM to 25.8 nM; in data set [1] (setting [4]), 0.0106 µg/mL and 14.8 nM.
Turning to `CC#CC[C@@H](C/C=C\NC(=O)[C@@H](NC(=O)\C=C/C=C\C(C)=C\[C@H](C)[C@@H]1CC=C(OC)C(=O)O1)C(C)(C)C)OC(=O)NCCCN` [Compound 24], the IC50 with HCC-1954 cells is 0.018 µg/mL and 28.7 nM; in the data set on MCF-7 cells, 0.0165 µg/mL and 26.3 nM; in the data set with MDA-MB-231 cells it was 0.0175 µg/mL and 27.9 nM; with SK-BR-3 cells it was 0.009 µg/mL and 14.4 nM; in data set [1] (Homo sapiens, read-out: IC50 values across the different cell lines tested (range), four breast cell lines), 9 to 18 ng/mL; in data set [1] (setting [3]) it was 14 nM to 28 nM and 0.009 µg/mL to 0.018 µg/mL. The IC50 in data set [1] (setting [4]) was 0.015 µg/mL and 24 nM. Moreover, the “decrease of cytotoxic activity as compared to Compound 41” value in data set [1] (1,3-propylenediamine group) is “about 2 logs”. Besides, the “mean IC50 value across the whole cell panel” value in data set [1] (four breast cell lines) was found to be 24 nM.
Regarding `CC#CC[C@@H](C/C=C\NC(=O)[C@@H](NC(=O)\C=C/C=C\C(C)=C\[C@H](C)[C@@H]1CC=C(OC)C(=O)O1)C(C)(C)C)OC(=O)NCCCNC(=O)CCCCCN1C(=O)C=CC1=O` [Compound 25], the IC50 in the data set on HCC-1954 cells is 0.044 µg/mL and 53.7 nM; in the data set with MCF-7 cells, 0.053 µg/mL and 64.6 nM; in the data set with MDA-MB-231 cells it was > 0.1 µg/mL and > 122 nM; in the data set with SK-BR-3 cells, 0.0255 µg/mL and 31.1 nM; in data set [1] (setting [3]), 0.025 µg/mL to 0.053 µg/mL and 31 nM to 65 nM; in data set [1] (setting [4]) it was 41 ng/mL. For the same compound, the “mean IC50 value across the whole cell panel” value in data set [1] (four breast cell lines) amounted to 49 nM.
Turning to `CC#CC[C@@H](C/C=C\NC(=O)[C@@H](NC(=O)\C=C/C=C\C(C)=C\[C@H](C)[C@@H]1CC=C(OC)C(=O)O1)C(C)(C)C)OC(=O)NCCCNC(=O)CCS` [Compound 27], the IC50 with HCC-1954 cells is 0.0165 µg/mL and 23.1 nM; in the data set on MCF-7 cells it was 0.039 µg/mL and 54.6 nM; in the data set with MDA-MB-231 cells, 0.0345 µg/mL and 48.3 nM; in the data set on SK-BR-3 cells, 0.0105 µg/mL and 14.7 nM; in data set [1] (setting [3]), 0.0105 µg/mL to 0.039 µg/mL and 15 nM to 55 nM; in data set [1] (setting [4]) it was 0.025 µg/mL and 35 nM.
With `CC#CC[C@@H](C/C=C\NC(=O)[C@@H](NC(=O)\C=C/C=C\C(C)=C\[C@H](C)[C@@H]1CC=C(OC)C(=O)O1)C(C)(C)C)OC(N)=O` [Compound 41], the IC50 with HCC-1954 cells was 0.000104 µg/mL and 0.183 nM; with MCF-7 cells it was 0.000265 µg/mL and 0.465 nM; with MDA-MB-231 cells, 0.00018 µg/mL and 0.316 nM; with SK-BR-3 cells, 0.00011 µg/mL and 0.193 nM; in data set [1] (setting [3]), 0.075 to 0.14 ng/mL; in data set [1] (setting [4]), 0.00016 µg/mL and 0.29 nM. Besides, the IC50 in data set [1] (setting [5]) is 0.19 nM.
For “Rituximab: anti-CD20 monoclonal antibody [reference compound]”, in data set [2] (50 μg/mL), the “cytotoxic activity” value was “virtually inactive”. In addition, the “cytotoxic activity in DR curves” value in data set [2] (5.0E+01 to 2.62E-05 μg/mL) is “rather inactive”.
